According to paper PMC11280343, “Rubus urticifolius Compounds with Antioxidant Activity, and Inhibition Potential against Tyrosinase, Melanin, Hyaluronidase, Elastase, and Collagenase” (Pharmaceuticals, 2024):
Several values for one entry are separate records, joined by “and”; a condition that tells them apart may be missing. Identical values can stand only once. Like-named read-outs stand apart in the source and are kept apart here. One block for each compound: values may come before it. Numbered stars: 1 amine (or outer) side, 2 acyl side, 3 side chain; on linkers, the order of the positions; unused ones are H or OH. Bridge positions count the residues as written; N and C are the ends. Square brackets hold non-standard residues; d marks the D form. Peptide text beside a SMILES is read from it. I, II: the chains in the order shown. Actinocin(9to1) = Cc1c2oc3c(C)ccc(C(=O)[*:1])c3nc-2c(C(=O)[*:2])c(N)c1=O; NMeV = CN[C@H](C(=O)O)C(C)C; Sar = CNCC(=O)O

What was measured:
hyaluronidase = biological target: T1, hyaluronidase (Bos taurus, UniProt Q2YDK3); details: cited from earlier work; for Inhibition of active hyaluronidase: 2 mM
T1 sequence (Q2YDK3 36-553): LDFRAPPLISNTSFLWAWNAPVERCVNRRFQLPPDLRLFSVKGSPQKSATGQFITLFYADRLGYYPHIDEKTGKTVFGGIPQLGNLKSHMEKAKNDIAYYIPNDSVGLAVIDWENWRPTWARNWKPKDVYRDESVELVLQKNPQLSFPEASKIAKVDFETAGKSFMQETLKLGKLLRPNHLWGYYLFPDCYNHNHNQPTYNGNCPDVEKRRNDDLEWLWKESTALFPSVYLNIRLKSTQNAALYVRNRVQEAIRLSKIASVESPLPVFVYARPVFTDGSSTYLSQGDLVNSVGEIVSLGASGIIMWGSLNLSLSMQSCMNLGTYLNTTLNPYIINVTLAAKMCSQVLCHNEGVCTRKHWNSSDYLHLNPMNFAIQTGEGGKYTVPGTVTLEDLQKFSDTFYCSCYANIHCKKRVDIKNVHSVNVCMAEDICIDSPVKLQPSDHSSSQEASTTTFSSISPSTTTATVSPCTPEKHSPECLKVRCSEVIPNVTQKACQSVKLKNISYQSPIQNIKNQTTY

NF-κB [1] = assay: NF-κB inhibition assay (LPS-stimulated), THP-1; assay type: cell-based; details: Homo sapiens, THP-1, 72 h, read-out: NF-κB Inhibition at 72 h IC50 ± SEM
Method: (§1) To determine the anti-inflammatory activity of the samples (at the same concentration as in the viability assay), NF-κB inhibition assay was used, following the protocol carried out by Apaza Ticona et al.. Cells were cultured in 96-well plates (1 × 10^6 cells/well). […] Absorbance was measured at 450 nm using a microplate reader.

NF-κB [2] = assay: NF-κB inhibition assay (LPS-stimulated), HEK001; assay type: cell-based; details: Homo sapiens, HEK001, 72 h, read-out: NF-κB Inhibition at 72 h IC50 ± SEM
Method: as §1

NF-κB [3] = assay: NF-κB inhibition assay (LPS-stimulated), WS1; assay type: cell-based; details: Homo sapiens, 72 h, read-out: NF-κB Inhibition at 72 h IC50 ± SEM
Method: as §1

NF-κB [4] = assay: NF-κB inhibition assay (LPS-stimulated), HMCB; assay type: cell-based; details: Homo sapiens, 72 h, read-out: NF-κB Inhibition at 72 h IC50 ± SEM
Method: as §1

NF-κB [5] = assay: NF-κB inhibition assay, positive control value of the method (cell line not stated); assay type: cell-based; details: Homo sapiens
Method: as §1

[6] = NR viability assay, THP-1; assay type: cell-based, Homo sapiens; details: human, THP-1, NR assay, 72 h; read-out: Viability CC50
Method: (§2) The HEK001 (Homo sapiens cutaneous keratinocyte, CCL-2404), WS1 (Homo sapiens cutaneous fibroblast, CRL-1502), HMCB (Homo sapiens cutaneous melanoma, CRL-9607), and THP-1 (Homo sapiens peripheral blood monocyte, TIB-202) cell lines used in this study were obtained from the American Type Culture Collection (ATCC, Manassas, VA, USA). Cultivated in a Roswell Park Memorial Institute (RPMI) 1640 medium (RPMI 1640 Merck, Cat. No. R7755, New York, NY, USA) supplemented with 2 mM L-glutamine (≥99% Merck, Cat. No. 56-85-9), 10% fetal bovine serum (FBS Merck, Cat. No. TMS-016, St. Louis, MO, USA), and 10,000 units of penicillin and 10 mg streptomycin/mL (Merck, Cat. No. P4333, St. Louis, MO, USA) in culture flasks, the cells were maintained in an incubator under normoxic conditions (20–21% O2) and a humidified atmosphere (5% CO2 at 37 °C).
(§3) Mother solutions of samples (extracts, fractions, and compounds) were prepared at a concentration of […] using dimethyl sulfoxide (DMSO ≥ 99.9% Merck, Cat. No. 67-68-5, St. Louis, MO, USA) as the solvent. From these mother solutions, dilutions were prepared at concentrations ranging from 100 to 0.20 μg/mL or μM in culture medium containing 0.5% DMSO. Additionally, a negative control group consisting solely of culture medium with 0.5% DMSO was included to assess its potential cytotoxic effect on the cells.
(§4) Cell viability was evaluated using a colorimetric assay in 96-well plates, employing 3-amino-7-dimethylamino-2-methylphenazine hydrochloride salt reagent (NR, Merck, Cat. No. 553-24-2, St. Louis, MO, USA).
(§5) HEK001, WS1, HMCB, and THP-1 cell lines were cultured in 96-well plates at 37 °C with 5% CO2 until > 90% confluency was achieved (1 × 10^6 cells/well). Subsequently, the cultures were treated with sample dilutions (100–0.20 μg/mL or μM) for 72 h at 37 °C with 5% CO2 in phenol red-free RPMI. The supernatant was then discarded and the cells were washed with phosphate-buffered saline (PBS) before being incubated with […] NR (50 μg/mL; 173 μM) for 3 h at 37 °C with 5% CO2. NR labelling was performed after DMSO treatment. After incubation, the labelled sample dilutions were rapidly washed with a fixative solution composed of 1% calcium chloride (CaCl2 Merck, Cat. No. 10043-52-4, St. Louis, MO, USA) and 0.5% formaldehyde solution (≥36.0% in H2O Merck, Cat. No. 50-00-0, St. Louis, MO, USA), then diluted with 100 μL of the NR extraction solution. Finally, the plates were read at 540 nm using a microplate reader (Anthos 2020, version 2.0.5, Biochrom Ltd., Cambridge, UK).

[7] = NR viability assay, HEK001; assay type: cell-based, Homo sapiens; details: human; HEK001, NR assay, 72 h; read-out: Viability CC50
Method: as §2, §3, §4, §5

NR viability assay, WS1 = assay type: cell-based, Homo sapiens; details: human; WS1, NR assay, 72 h; read-out: Viability CC50
Method: as §2, §3, §4, §5

NR viability assay, HMCB = assay type: cell-based, Homo sapiens; details: human; HMCB, NR assay, 72 h; read-out: Viability CC50
Method: as §2, §3, §4, §5

[8] = test system: HEK001, WS1, HMCB, and THP-1 cell lines; assay: Viability assay, positive control value of the method (cell line not stated); assay type: cell-based; details: Homo sapiens
Method: as §4, §5

Nrf2 [9] = assay: Nrf2 activation assay, THP-1; assay type: cell-based; details: Homo sapiens, THP-1, 72 h; read-out: Activation of Nrf2 production EC50
Method: as §1, with “antioxidant response” for “anti-inflammatory activity”, “Nrf2 activation” for “NF-κB inhibition”, “540” for “450”

Nrf2 [10] = assay: Nrf2 activation assay, HEK001; assay type: cell-based; details: Homo sapiens, HEK001, 72 h; read-out: Activation of Nrf2 production EC50
Method: as §1, with “antioxidant response” for “anti-inflammatory activity”, “Nrf2 activation” for “NF-κB inhibition”, “540” for “450”

Nrf2 [11] = assay: Nrf2 activation assay, WS1; assay type: cell-based; details: Homo sapiens; WS1, 72 h; read-out: Activation of Nrf2 production EC50
Method: as §1, with “antioxidant response” for “anti-inflammatory activity”, “Nrf2 activation” for “NF-κB inhibition”, “540” for “450”

Nrf2 [12] = assay: Nrf2 activation assay, HMCB; assay type: cell-based; details: Homo sapiens, 72 h, read-out: Activation of Nrf2 production EC50
Method: as §1, with “antioxidant response” for “anti-inflammatory activity”, “Nrf2 activation” for “NF-κB inhibition”, “540” for “450”

Nrf2 [13] = assay: Nrf2 activation assay, positive control value of the method (cell line not stated); assay type: cell-based; details: Homo sapiens
Method: as §1, with “antioxidant response” for “anti-inflammatory activity”, “Nrf2 activation” for “NF-κB inhibition”, “540” for “450”

[14] = biological target: T2, elastase from porcine pancreas (Sus scrofa, UniProt P00772); assay: Elastase-inhibitory effect assay; assay type: biochemical
T2 construct: elastase from porcine pancreas (7.5 units/mL); from tissue; host or cells: porcine pancreas
T2 sequence (P00772 27-266): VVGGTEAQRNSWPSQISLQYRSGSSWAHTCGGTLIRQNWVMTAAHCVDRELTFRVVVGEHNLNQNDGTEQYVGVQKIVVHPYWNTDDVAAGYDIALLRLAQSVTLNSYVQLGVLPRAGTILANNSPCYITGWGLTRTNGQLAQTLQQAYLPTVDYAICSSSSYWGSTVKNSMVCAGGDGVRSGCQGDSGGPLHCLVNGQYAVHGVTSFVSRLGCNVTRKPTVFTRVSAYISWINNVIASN
Method: The elastase-inhibitory effect was evaluated, implementing the protocol adapted from Tu and Tawata.
A mixture containing N-succinyl-Ala-Ala-Ala-p-nitroanilide (AAAPVN, Merck, Cat. No. 52299-14-6, St. Louis, MO, USA) elastase substrate in 0.1232 M Tris-HCl buffer solution (pH 8) was prepared to achieve a concentration of 1.015 mM. This elastase substrate was combined with 10 μL of the test samples at the same concentrations used as in the viability assay in 96-well plates and pre-incubated at room temperature (25 ± 5 °C) for 10 min. Subsequently, the reaction was initiated by adding 10 μL of elastase from porcine pancreas (7.5 units/mL) in Tris buffer solution to the pre-incubated mixtures. Absorbance was then measured at 410 nm using a microplate reader.

collagenase = assay: Collagenase inhibitory assay; assay type: biochemical
Method: A fixed weight of 1 mg of azo dye-impregnated collagen was measured in the test tubes. Subsequently, 800 μL of 0.1 M Tris-HCl (pH 7) and 100 μL of the samples at the same concentrations used as in the viability assay were added to each test tube. Next, 100 μL of collagenase (200 units/mL) was immediately mixed into the mixture and the tubes were incubated at 43 °C for 1 h. After incubation, the test tubes were centrifuged at 3000 rpm for 10 min. The supernatant from each tube was transferred into 96-well plates and the absorbance of each supernatant was measured at 550 nm using a microplate reader.

[15] = test system: melanin production in HMCB cells; assay: Melanin content assay; assay type: cell-based; details: Homo sapiens; HMCB cells, 12 h; read-out: Inhibitory activity of melanin production IC50
Method: as §1, with “anti-melanogenic” for “anti-inflammatory”, “melanin” for “NF-κB”, “HMCB cells” for “Cells”, “405” for “450”

[16] = equivalent value for the compounds
[17] = value for the extracts and fractions
[18] = inhibition percentage 'at an IC50', concentration not otherwise stated

Compound: COc1ccc(/C=C/C(=O)Nc2ccccc2C(=O)O)cc1OC [Tranilast]
Inhibition of active hyaluronidase (hyaluronidase; activator added): 50% | Inhibition of active hyaluronidase (hyaluronidase): 75%

Compound: CC1=C(O)C(=O)C=C2C1=CC=C1[C@@]2(C)CC[C@@]2(C)[C@@H]3C[C@](C)(C(=O)O)CC[C@]3(C)CC[C@]12C [Celastrol, reference compound]
IC50 (NF-κB [1]): 7.62 µM and 3.35 µg/mL | IC50 (NF-κB [2]): 7.57 µM and 3.33 µg/mL | IC50 (NF-κB [3]): 7.41 µM and 3.29 µg/mL | IC50 (NF-κB [4]): 7.36 µM and 3.27 µg/mL | IC50 (NF-κB [5]; [16]): 7.41 µM | IC50 (NF-κB [5]; [17]): 3.34 µg/mL

Compound: Cc1c2oc3c(C)ccc(C(=O)N[C@@H]4C(=O)N[C@H](C(C)C)C(=O)N5CCC[C@H]5C(=O)N(C)CC(=O)N(C)[C@@H](C(C)C)C(=O)O[C@@H]4C)c3nc-2c(C(=O)N[C@@H]2C(=O)N[C@H](C(C)C)C(=O)N3CCC[C@H]3C(=O)N(C)CC(=O)N(C)[C@@H](C(C)C)C(=O)O[C@@H]2C)c(N)c1=O [ACTD, Actinomycin D, reference compound] (I: T[dV]P[Sar][NMeV] / II: T[dV]P[Sar][NMeV]; ester I:1-I:C, II:1-II:C; linker I:N-II:N via Actinocin(9to1))
CC50 at 72 h [6]: 0.0192 µg/mL and 9 nM | CC50 at 72 h [7]: 0.0184 µg/mL and 9 nM | CC50 at 72 h (NR viability assay, WS1): 0.0173 µg/mL and 8 nM | CC50 at 72 h (NR viability assay, HMCB): 0.0161 µg/mL and 7 nM | IC50 [8, 16]: 0.008 µM | IC50 [8, 17]: 0.01 µg/mL

EC50 (Nrf2 [9]): 8e-05 µg/mL and 0.13 nM | EC50 (Nrf2 [10]): 5e-05 µg/mL and 0.08 nM | EC50 (Nrf2 [11]): 6e-05 µg/mL and 0.09 nM | EC50 (Nrf2 [12]): 7e-05 µg/mL and 0.1 nM | EC50 (Nrf2 [13]; [16]): 0.00011 µM | EC50 (Nrf2 [13]; [17]): 0.07 ng/mL
Compound: COC(=O)[C@]12CCC(C)(C)C[C@H]1[C@H]1C(=O)C=C3[C@@]4(C)C=C(C#N)C(=O)C(C)(C)[C@@H]4CC[C@@]3(C)[C@]1(C)CC2 [CDDO-Me, 2-Cyano-3,12-dioxo-oleana-1,9(11)-dien-28-oic acid methyl ester, reference compound]

Compound: O=C(O[C@@H]1Cc2c(O)cc(O)cc2O[C@@H]1c1cc(O)c(O)c(O)c1)c1cc(O)c(O)c(O)c1 [EGCG, Epigallocatechin gallate, reference compound]
Elastase Inhibition (%) [14, 18]: 98.08 ± 1.74% and 94.44 ± 1.30% | Anti-Elastase IC50 ([14]; marked (*)): 114 µg/mL and 114.38 ± 3.07 µg/mL | IC50 ([14]; read-out: Anti-Elastase IC50): 250 µM | Collagenase Inhibition (%) (collagenase; [18]): 98.81 ± 1.42% and 95.29 ± 2.09% | Anti-Collagenase IC50 (collagenase; marked (*)): 114 µg/mL and 114.04 ± 3.07 µg/mL | IC50 (collagenase; read-out: Anti-Collagenase IC50): 250 µM and 251 µM

IC50 [15]: 16.4 µM
Compound: O=c1cc(CO)occ1O [Kojic acid, reference compound]

Compound: O=C(O)/C=C/c1ccccc1 [trans-cinnamic acid]
Hyaluronidase inhibition (hyaluronidase): more than 60%
